# Assay results: ChEMBL document CHEMBL1122235, “4'-Methylangelicins: new potential agents for the photochemotherapy of psoriasis” (J Med Chem, 1983)
# Key:
# [1] = In vivo inhibition of epidermal DNA synthesis in mouse after oral administration relativ to that of 8-MOP; format: functional
# Mus musculus [2] = assay: In vivo inhibition of epidermal DNA synthesis in mouse after topical application; format: functional
# [3] = Solubility in water was determined; format: physicochemical
# [4] = Rate constant of the photoreaction between compound and DNA.; format: ADME
# [5] = Frequency of binding sites i.e., number of ligands bound per nucleotide
# [6] = Partition coefficient between octanol and water; format: physicochemical
# Mus musculus [7] = assay: In vivo inhibition of epidermal DNA synthesis in mouse after oral administration; format: functional
# Nucleic Acid = assay: Association constant to an isolated site calf thymus DNA; format: nucleic-acid assay; conditions: Bos taurus
# [8] = Number of nucleotides occluded by a bound furocoumarin molecule
# [9] = In vivo inhibition of epidermal DNA synthesis in mouse after topical application relative to that of 8-MOP; format: functional
Compound,Solubility ([3]; buffer),Rate constant [4],1/n [5],Partition coefficient [6],Binding constant (Nucleic Acid),Number [8],"Solubility ([3]; water, read-out: Solubility)",Relative activity [1],Inhibition (Mus musculus [2]),Inhibition (Mus musculus [7]),Relative activity [9]
O=c1ccc2ccc3occc3c2o1 [ANGELICIN],0.000105 M l-1,0.011 min⁻¹,0.063,120,560,15.9,,0.71,17.5%,28%,0.28
Cc1cc2occ(C)c2c2oc(=O)ccc12,0.000022 M l-1,0.059 min⁻¹,0.08,1041,5400,12.5,4.7 µg/mL,1.36,58.41%,53.33%,0.95
Cc1cc(=O)oc2c1ccc1occ(C)c12,0.000012 M l-1,0.073 min⁻¹,0.08,1190,6600,12.5,2.6 µg/mL,0.66,44.27%,25.82%,0.72

# Now from value to molecule, other results behind:
Solubility ([3]; buffer),Rate constant [4],1/n [5],Partition coefficient [6],Binding constant (Nucleic Acid),Number [8],"Solubility ([3]; water, read-out: Solubility)",Compound,Relative activity [1],Inhibition (Mus musculus [2]),Inhibition (Mus musculus [7]),Relative activity [9]
,0.034 min⁻¹,,,,,,Cc1cc2occc2c2oc(=O)ccc12,,,,
0.00007 M l-1,0.037 min⁻¹,0.065,240,975,15.4,14 µg/mL,Cc1coc2ccc3ccc(=O)oc3c12,0.94,58.43%,36.75%,0.95
,0.031 min⁻¹,0.128,,736,7.81,,COc1c2occc2cc2ccc(=O)oc12 [METHOXSALEN],1,61%,39.1%,1
,0.016 min⁻¹,,,,,,Cc1cc(=O)oc2c1ccc1occc12,,,,
,0.021 min⁻¹,,,,,,Cc1cc2c(ccc3ccc(=O)oc32)o1,,,,
